Experimental findings from ChEMBL document CHEMBL3044664, “Synthesis of coumarin-based 1,3,4-oxadiazol-2ylthio-N-phenyl/benzothiazolyl acetamides as antimicrobial and antituberculosis agents” (2013) are described below.

Format in all cases: functional
Test [1] deals with Mycobacterium tuberculosis. The test can be described thus: Antitubercular activity against Mycobacterium tuberculosis H37Rv assessed as growth inhibition by BACTEC MGIT method.
For test [2], the system named is Mycobacterium tuberculosis. Briefly: Antitubercular activity against Mycobacterium tuberculosis H37Rv assessed as growth inhibition at MIC by BACTEC MGIT method.
Another test concerns Aspergillus clavatus. Briefly: Antifungal activity against Aspergillus clavatus MTCC 1323 assessed as growth inhibition by agar streak dilution method.
The test system of another test is Staphylococcus aureus. Briefly: Antibacterial activity against Staphylococcus aureus MTCC 96 assessed as growth inhibition by agar streak dilution method.
For a further test, the system named is Proteus vulgaris. Briefly: Antibacterial activity against Proteus vulgaris MTCC 1771 assessed as growth inhibition by agar streak dilution method.
In test [3] the test system is Mycobacterium tuberculosis. The test can be described thus: Antitubercular activity against Mycobacterium tuberculosis H37Rv assessed as growth inhibition at MIC by Lowenstein-Jensen method.
A further test concerns Aspergillus fumigatus. Briefly: Antifungal activity against Aspergillus fumigatus MTCC 343 assessed as growth inhibition by agar streak dilution method.
The next test deals with Bacillus cereus. The test can be described thus: Antibacterial activity against Bacillus cereus MTCC 430 assessed as growth inhibition by agar streak dilution method.
The test system of another test is Klebsiella pneumoniae. Briefly: Antibacterial activity against Klebsiella pneumoniae MTCC 109 assessed as growth inhibition by agar streak dilution method.
Another test deals with Pseudomonas aeruginosa. Briefly: Antibacterial activity against Pseudomonas aeruginosa MTCC 741 assessed as growth inhibition by agar streak dilution method.
A further test has as its system Shigella flexneri. Briefly: Antibacterial activity against Shigella flexneri MTCC 1457 assessed as growth inhibition by agar streak dilution method.
The next test relates to Salmonella typhi. Briefly: Antibacterial activity against Salmonella enterica subsp. enterica serovar Typhi MTCC 733 assessed as growth inhibition by agar streak dilution method.
The test system of test [4] is Mycobacterium tuberculosis. The test can be described thus: Antitubercular activity against Mycobacterium tuberculosis H37Rv assessed as growth inhibition by Lowenstein-Jensen method.
The test system of another test is Aspergillus niger. Briefly: Antifungal activity against Aspergillus niger MTCC 282 assessed as growth inhibition by agar streak dilution method.
Another test concerns Candida albicans. The test can be described thus: Antifungal activity against Candida albicans MTCC 183 assessed as growth inhibition by agar streak dilution method.
Another test relates to Escherichia coli. Briefly: Antibacterial activity against Escherichia coli MTCC 739 assessed as growth inhibition by agar streak dilution method.

≈ marks a conversion by molar mass, not a printed value.

As for `CC[C@@H](CO)NCCN[C@@H](CC)CO` [ETHAMBUTOL], the MIC in test [1] was determined as 3.12 µg/mL (≈ 15.3 µM). Besides, the “growth inhibition (GI)” value in test [2] worked out at 99%.

Consider `NNC(=O)c1ccncc1` [ISONIAZID], for which the MIC in test [1] was 0.2 µg/mL (≈ 1.46 µM). Besides, in test [2], the “growth inhibition (GI)” value came to 99%.

In the case of `NC(=O)c1cnccn1` [PYRAZINAMIDE], the minimum inhibitory concentration (MIC) in test [1] is 6.25 µg/mL (≈ 50.8 µM). Moreover, the “growth inhibition (GI)” value in [2] turned out to be 99%.

As for `CO[C@H]1/C=C/O[C@@]2(C)Oc3c(C)c(O)c4c(O)c(c(/C=N/N5CCN(C)CC5)c(O)c4c3C2=O)NC(=O)/C(C)=C\C=C\[C@H](C)[C@H](O)[C@@H](C)[C@@H](O)[C@@H](C)[C@H](OC(C)=O)[C@@H]1C` [RIFAMPIN], in [1], the MIC is 0.25 µg/mL (≈ 0.304 µM). For the same molecule, in test [2], the “growth inhibition (GI)” value was 99%.

As for `O=C(CSc1nnc(-c2cc3ccccc3oc2=O)o1)Nc1nc2ccc([N+](=O)[O-])cc2s1`, the MIC is 100 µg/mL (≈ 208 µM) with Aspergillus clavatus; above 6.25 µg/mL in test [1]; 50 µg/mL (≈ 104 µM) with Staphylococcus aureus; 12.5 µg/mL (≈ 26 µM) in the test with Proteus vulgaris; 100 µg/mL (≈ 208 µM) in the test with Aspergillus fumigatus; 100 µg/mL (≈ 208 µM) in the test on Bacillus cereus. The MIC stood at 50 µg/mL (≈ 104 µM) in the test on Klebsiella pneumoniae; 100 µg/mL (≈ 208 µM) in the test on Pseudomonas aeruginosa; 100 µg/mL (≈ 208 µM) in the test with Shigella flexneri; 100 µg/mL (≈ 208 µM) in the test with Salmonella typhi; 250 µg/mL (≈ 519 µM) in test [4]; 50 µg/mL (≈ 104 µM) with Aspergillus niger. Moreover, the MIC was 50 µg/mL (≈ 104 µM) in the test with Candida albicans and 100 µg/mL (≈ 208 µM) in the test with Escherichia coli. Moreover, the “growth inhibition (GI)” value in test [3] amounted to 96%.

`CC(=O)Nc1ccc(NC(=O)CSc2nnc(-c3cc4ccccc4oc3=O)o2)cc1`: the minimal inhibitory concentration (MIC) in the test on Aspergillus clavatus was 50 µg/mL (≈ 115 µM); in test [1], above 6.25 µg/mL; in the test with Staphylococcus aureus, 50 µg/mL (≈ 115 µM); in the test on Proteus vulgaris, above 100 µg/mL; in the test on Aspergillus fumigatus, above 100 µg/mL; in the test with Bacillus cereus it was 100 µg/mL (≈ 229 µM). Also, the minimum inhibitory concentration (MIC) in the test on Klebsiella pneumoniae is above 100 µg/mL; in the test with Pseudomonas aeruginosa it was 50 µg/mL (≈ 115 µM); in the test with Shigella flexneri, above 100 µg/mL; with Salmonella typhi it was above 100 µg/mL; in test [4] it was 250 µg/mL (≈ 573 µM); in the test on Aspergillus niger it was above 100 µg/mL. In addition, the MIC is 100 µg/mL (≈ 229 µM) with Candida albicans and above 100 µg/mL with Escherichia coli. Further, the “growth inhibition (GI)” value in [3] stood at 95%.

`N#Cc1ccc(NC(=O)CSc2nnc(-c3cc4ccccc4oc3=O)o2)cc1`: the minimum inhibitory concentration (MIC) with Aspergillus clavatus is above 100 µg/mL; in test [1] it was above 6.25 µg/mL; in the test with Staphylococcus aureus, 6.25 µg/mL (≈ 15.5 µM); in the test with Proteus vulgaris, 100 µg/mL (≈ 247 µM); in the test with Aspergillus fumigatus it was above 100 µg/mL; with Bacillus cereus, 100 µg/mL (≈ 247 µM). Besides, the MIC with Klebsiella pneumoniae is 50 µg/mL (≈ 124 µM); in the test on Pseudomonas aeruginosa, 100 µg/mL (≈ 247 µM); in the test on Shigella flexneri, above 100 µg/mL; in the test on Salmonella typhi, 100 µg/mL (≈ 247 µM); in [4], 200 µg/mL (≈ 495 µM); in the test on Aspergillus niger it was above 100 µg/mL. For the same molecule, the MIC in the test with Candida albicans and in the test on Escherichia coli was 50 µg/mL (≈ 124 µM) in each case. The “growth inhibition (GI)” value in test [3] is recorded as 95%.

On to `N#Cc1ccc2nc(NC(=O)CSc3nnc(-c4cc5ccccc5oc4=O)o3)sc2c1`, for which the MIC in the test with Aspergillus clavatus is 100 µg/mL (≈ 217 µM); in test [1] it was above 6.25 µg/mL; in the test with Staphylococcus aureus it was 25 µg/mL (≈ 54.2 µM); with Proteus vulgaris, 100 µg/mL (≈ 217 µM); with Aspergillus fumigatus it was above 100 µg/mL; with Bacillus cereus it was 100 µg/mL (≈ 217 µM). Moreover, the MIC was 25 µg/mL (≈ 54.2 µM) in the test on Klebsiella pneumoniae; above 100 µg/mL in the test with Pseudomonas aeruginosa; above 100 µg/mL with Shigella flexneri; 100 µg/mL (≈ 217 µM) in the test with Salmonella typhi; 100 µg/mL (≈ 217 µM) in test [4]; 100 µg/mL (≈ 217 µM) in the test with Aspergillus niger. The minimal inhibitory concentration (MIC) in the test on Candida albicans and in the test on Escherichia coli was 50 µg/mL (≈ 108 µM) throughout. The “growth inhibition (GI)” value in test [3] is 98%.

As for `O=C(CSc1nnc(-c2cc3ccccc3oc2=O)o1)Nc1nc2ccc(Br)cc2s1`, the minimal inhibitory concentration (MIC) with Aspergillus clavatus was 100 µg/mL (≈ 194 µM); in test [1] it was above 6.25 µg/mL; in the test on Staphylococcus aureus, 25 µg/mL (≈ 48.5 µM); in the test with Proteus vulgaris, 50 µg/mL (≈ 97 µM); with Aspergillus fumigatus, 100 µg/mL (≈ 194 µM); in the test with Bacillus cereus, 3.12 µg/mL (≈ 6.05 µM). Further, the MIC in the test on Klebsiella pneumoniae came to 100 µg/mL (≈ 194 µM); with Pseudomonas aeruginosa, 100 µg/mL (≈ 194 µM); in the test on Shigella flexneri, 50 µg/mL (≈ 97 µM); with Salmonella typhi, 100 µg/mL (≈ 194 µM); in [4] it was 12.5 µg/mL (≈ 24.3 µM); in the test with Aspergillus niger it was 25 µg/mL (≈ 48.5 µM). Besides, the MIC in the test on Candida albicans and with Escherichia coli was 50 µg/mL (≈ 97 µM) in each case. In test [3], the “growth inhibition (GI)” value is given as 99%.

As for `CCOc1ccc(NC(=O)CSc2nnc(-c3cc4ccccc4oc3=O)o2)cc1`, the MIC in the test with Aspergillus clavatus is 100 µg/mL (≈ 236 µM); in test [1], above 6.25 µg/mL; in the test on Staphylococcus aureus, 25 µg/mL (≈ 59 µM); in the test with Proteus vulgaris, 100 µg/mL (≈ 236 µM); in the test with Aspergillus fumigatus, 100 µg/mL (≈ 236 µM); with Bacillus cereus, 100 µg/mL (≈ 236 µM). Also, the MIC in the test with Klebsiella pneumoniae stood at 100 µg/mL (≈ 236 µM); in the test with Pseudomonas aeruginosa it was 6.25 µg/mL (≈ 14.8 µM); in the test on Shigella flexneri it was 100 µg/mL (≈ 236 µM); in the test with Salmonella typhi it was 50 µg/mL (≈ 118 µM); in test [4] it was 25 µg/mL (≈ 59 µM); with Aspergillus niger, 100 µg/mL (≈ 236 µM). In addition, the minimal inhibitory concentration (MIC) in the test on Candida albicans and with Escherichia coli was 50 µg/mL (≈ 118 µM) throughout. Moreover, the “growth inhibition (GI)” value in test [3] worked out at 98%.

On to `COc1ccc(NC(=O)CSc2nnc(-c3cc4ccccc4oc3=O)o2)cc1`, for which the MIC is 50 µg/mL (≈ 122 µM) in the test on Aspergillus clavatus; above 6.25 µg/mL in test [1]; 6.25 µg/mL (≈ 15.3 µM) in the test with Staphylococcus aureus; 100 µg/mL (≈ 244 µM) in the test with Proteus vulgaris; 100 µg/mL (≈ 244 µM) in the test with Aspergillus fumigatus; 100 µg/mL (≈ 244 µM) with Bacillus cereus. For the same molecule, the MIC in the test with Klebsiella pneumoniae is 100 µg/mL (≈ 244 µM); in the test on Pseudomonas aeruginosa, 25 µg/mL (≈ 61.1 µM); with Shigella flexneri, 100 µg/mL (≈ 244 µM); in the test on Salmonella typhi, 25 µg/mL (≈ 61.1 µM); in test [4] it was 50 µg/mL (≈ 122 µM); with Aspergillus niger, 100 µg/mL (≈ 244 µM). Moreover, the MIC was 100 µg/mL (≈ 244 µM) in the test on Candida albicans and 50 µg/mL (≈ 122 µM) in the test on Escherichia coli. Further, the “growth inhibition (GI)” value in test [3] turned out to be 97%.

Consider `O=C(CSc1nnc(-c2cc3ccccc3oc2=O)o1)Nc1ccccc1`, for which the MIC in the test on Aspergillus clavatus is above 100 µg/mL; in test [1], above 6.25 µg/mL; in the test on Staphylococcus aureus, above 100 µg/mL; in the test with Proteus vulgaris, above 100 µg/mL; in the test on Aspergillus fumigatus, above 100 µg/mL; in the test with Bacillus cereus it was 100 µg/mL (≈ 264 µM). In addition, the MIC was above 100 µg/mL in the test on Klebsiella pneumoniae; above 100 µg/mL in the test with Pseudomonas aeruginosa; above 100 µg/mL with Shigella flexneri; above 100 µg/mL in the test with Salmonella typhi; 500 µg/mL (≈ 1320 µM) in [4]; above 100 µg/mL in the test on Aspergillus niger. Moreover, the minimal inhibitory concentration (MIC) in the test with Candida albicans and in the test on Escherichia coli was 100 µg/mL (≈ 264 µM) each time. Also, the “growth inhibition (GI)” value in [3] was found to be 95%.

Regarding `O=C(CSc1nnc(-c2cc3ccccc3oc2=O)o1)Nc1ccc(I)cc1`, the MIC in the test with Aspergillus clavatus is 100 µg/mL (≈ 198 µM); in [1], above 6.25 µg/mL; with Staphylococcus aureus, 100 µg/mL (≈ 198 µM); in the test on Proteus vulgaris it was 50 µg/mL (≈ 99 µM); in the test with Aspergillus fumigatus, 100 µg/mL (≈ 198 µM); in the test on Bacillus cereus, 100 µg/mL (≈ 198 µM). The MIC in the test on Klebsiella pneumoniae was 100 µg/mL (≈ 198 µM); in the test with Pseudomonas aeruginosa it was 100 µg/mL (≈ 198 µM); with Shigella flexneri it was 100 µg/mL (≈ 198 µM); with Salmonella typhi, above 100 µg/mL; in test [4], 12.5 µg/mL (≈ 24.7 µM); in the test on Aspergillus niger, 100 µg/mL (≈ 198 µM). Also, the MIC with Candida albicans and in the test on Escherichia coli was 100 µg/mL (≈ 198 µM) throughout. The “growth inhibition (GI)” value in [3] was 99%.
